Measured values reported in ChEMBL document CHEMBL5046319, “Development of Low-Molecular-Weight Compounds Targeting the Cancer-Associated KLF5 Transcription Factor” (ACS Med Chem Lett, 2022).
Activity calls are given as the source filed them. No cut-off for these calls is given here.

Columns and labels:
[1] = system: SW480; test: Inhibition of Wnt signalling in human SW480 cells assessed as reduction in KLF5 mRNA expression at 10 uM measured after 24 hrs by RT-PCR analysis; format: cell-based
[2] = system: SW480; test: Antiproliferative activity against human SW480 cells assessed as cell growth inhibition measured after 72 hrs by Cell Counting Kit-8 assay; format: functional, cell-based; conditions: SW480, 72 h
[3] = system: SW480; test: Inhibition of Wnt signalling in human SW480 cells assessed as reduction in survivin expression at 10 uM measured after 24 hrs by western blot analysis; format: cell-based
[4] = system: CCD-841CoN; test: Inhibition of Wnt signalling in human CCD841 cells assessed as reduction in survivin expression at 10 uM measured after 24 hrs by western blot analysis; format: cell-based
[5] = system: CCD-841CoN; test: Inhibition of Wnt signalling in human CCD841 cells assessed as reduction in TCF4 expression at 10 uM measured after 24 hrs by western blot analysis; format: cell-based
[6] = system: SW480; test: Inhibition of Wnt signalling in human SW480 cells assessed as reduction in KLF5 expression at 10 uM measured after 24 hrs by western blot analysis; format: cell-based
[7] = system: HCT-116; test: Antiproliferative activity against human HCT-116 cells assessed as cell growth inhibition measured after 72 hrs by Cell Counting Kit-8 assay; format: functional, cell-based; conditions: HCT-116, 72 h
[8] = system: CCD-841CoN; test: Inhibition of Wnt signalling in human CCD841 cells assessed as reduction in KLF5 expression at 10 uM measured after 24 hrs by western blot analysis; format: cell-based
[9] = system: CCD-841CoN; test: Cytotoxicity against human CCD-841 cells assessed as cell growth inhibition measured after 72 hrs by Cell Counting Kit-8 assay; format: toxicity, cell-based
[10] = system: SW480; test: Inhibition of Wnt signalling in human SW480 cells assessed as reduction in phosphorylation of beta-catenin at ser552 residues at 10 uM measured after 24 hrs by western blot analysis; format: cell-based
[11] = system: SW480; test: Inhibition of Wnt signalling in human SW480 cells assessed as reduction in TCF4 expression at 10 uM measured after 24 hrs by western blot analysis; format: cell-based
[12] = system: CCD-841CoN; test: Cytotoxicity against human CCD841 cells assessed as inhibition of cell proliferation at 100 uM incubated for 72 hrs by CCK-8 assay; format: toxicity, cell-based
[13] = system: SW480; test: Antiproliferative activity against human SW480 cells assessed as inhibition of cell proliferation at 100 uM incubated for 72 hrs by CCK-8 assay; format: functional, cell-based
[14] = system: HCT-116; test: Antiproliferative activity against human HCT-116 cells assessed as inhibition of cell proliferation at 100 uM incubated for 72 hrs by CCK-8 assay; format: functional, cell-based
[15] = system: HT-29; test: Antitumour activity against human HT-29 cells subcutaneously transplanted in nude mouse assessed as reduction in tumor volume at 2 mg, ip administered twice per day for 8 days; format: functional, organism-based; conditions: time 8.0 day
[16] = system: CCD-841CoN; test: Inhibition of Wnt signalling in human CCD841 cells assessed as reduction in phosphorylation of beta-catenin at ser675 residue at 10 uM measured after 24 hrs by western blot analysis; format: cell-based
[17] = system: SW480; test: Inhibition of Wnt2 signalling in human SW480 cells assessed as reduction in cyclin D1 expression at 10 uM measured after 24 hrs by western blot analysis; format: cell-based
[18] = system: SW480; test: Inhibition of USP3-KLF5 protein complex formation in human SW480 cells assessed as reduction in beta-catenin expression at 10 uM measured after 24 hrs by western blot analysis; format: cell-based
[19] = system: SW480; test: Inhibition of Wnt signalling in human SW480 cells assessed as reduction in phosphorylation of beta-catenin at ser675 residue at 10 uM measured after 24 hrs by western blot analysis; format: cell-based
[20] = system: HEK293T; test: Inhibition of USP3-KLF5 protein complex formation in HEK293T cells overexpressing Myc tag-USP3 and FLAG/HA-KLF5 proteins assessed as reduction in KLF5 expression at 20 uM measured after 4 hrs by western blot analysis; format: cell-based; conditions: Homo sapiens
[21] = Toxicity in nude mouse transplanted subcutaneously with human HT-29 cells assessed as abnormality in villi formation at 2 mg, ip administered twice daily for 8 days by H and E staining based assay; format: organism-based; conditions: in vivo, 192 h, time 8 day
[22] = Toxicity in nude mouse transplanted subcutaneously with human HT-29 cells assessed as abnormality in epithelial cell integrity at 2 mg, ip administered twice daily for 8 days by H and E staining based assay; format: organism-based; conditions: in vivo, 192 h, time 8 day
[23] = system: CCD-841CoN; test: Inhibition of Wnt signalling in human CCD841 cells assessed as reduction in cyclin D1 expression at 10 uM measured after 24 hrs by western blot analysis; format: cell-based

In the case of `CCCC[C@H]1CN(Cc2ccccc2)C[C@@H]2N(C(=O)OCC(C)C)O[C@H](C(C)C)C(=O)N12`, the Activity [1] is reported as “inactive”, the IC50 [2] is reported as 5.1 µM and the Activity [3] is reported as “Active”. The Activity [4] was “inactive”, the Activity [5] was “inactive” and the Activity [6] was “Active”. The IC50 [7] was 5.1 µM, the Activity [8] was “inactive” and the Activity [9] was “Non-Toxic”. For the same compound, the Activity [10] was “Active” and the Activity [11] was “Active”.
With `CC(C)[C@H](O)C(=O)O` the Activity [12] was “Toxic”, the Activity [13] was “Active” and the Activity [14] was “Active”.
For `O=C1[C@H](Cc2ccc(O)cc2)N2C(=O)CCN(C(=O)NCc3ccccc3)[C@H]2CN1Cc1cccc2ccccc12`, the Activity [12] was “Toxic”, the Activity [13] was “Active” and the Activity [14] was “Active”.
In the case of `CC(C)[C@H](O)C(=O)OCc1ccccc1`, the Activity [12] is reported as “Toxic”, the Activity [13] is reported as “Active” and the Activity [14] is reported as “Active”.
With `O=C1c2ccccc2C(=O)N1O` the Activity [12] was “Toxic”, the Activity [13] was “Active” and the Activity [14] was “Active”.
For `CC[C@H](C)[C@H]1CN(Cc2ccccc2)C[C@@H]2N(C(=O)OCC(C)C)O[C@H](C(C)C)C(=O)N12`, the Activity [15] was “Active”, the Activity [16] was “inactive” and the Activity [17] was “Active”. For the same compound, the Activity [18] was “Active”, the Activity [19] was “Active” and the Activity [20] was “Active”. The Activity [21] was “Non-Toxic”, the IC50 [2] was 2.5 µM and the Activity [3] was “Active”. The Activity [22] was “Non-Toxic”, the Activity [6] was “Active” and the IC50 [7] was 2.5 µM. The Activity [9] was “Non-Toxic”, the Activity [23] was “inactive” and the Activity [10] was “Active”. For the same compound, the Activity [11] was “Active”.
For `CCOC(CN(Cc1ccccc1)C(=O)[C@@H](NC(=O)OCC1c2ccccc2-c2ccccc21)[C@@H](C)CC)OCC`, the Activity [12] was “Toxic”, the Activity [13] was “Active” and the Activity [14] was “Active”.
For `O=Cc1ccccc1` [BENZALDEHYDE], the Activity [12] was “Toxic”, the Activity [13] was “Active” and the Activity [14] was “Active”.
For `CCOC(CNCc1ccccc1)OCC`, the Activity [12] was “Toxic”, the Activity [13] was “Active” and the Activity [14] was “Active”.
In the case of `CC(C)[C@@H](ON)C(=O)OCc1ccccc1`, the Activity [12] is reported as “Toxic”, the Activity [13] is reported as “Active” and the Activity [14] is reported as “Active”.
With `CC(C)COC(=O)N1O[C@H](C(C)C)C(=O)N2[C@@H](CC(C)C)CN(Cc3ccccc3)C[C@H]12` the Activity [1] was “inactive”, the IC50 [2] was 5.1 µM and the Activity [3] was “Active”. The Activity [4] was “inactive”, the Activity [5] was “inactive” and the Activity [6] was “Active”. For the same compound, the IC50 [7] was 5.1 µM, the Activity [8] was “inactive” and the Activity [9] was “Non-Toxic”. For the same compound, the Activity [10] was “Active” and the Activity [11] was “Active”.
For `CCOC(CN)OCC`, the Activity [12] was “Toxic”, the Activity [13] was “Active” and the Activity [14] was “Active”.
For `CC[C@H](C)[C@H](NC(=O)OCC1c2ccccc2-c2ccccc21)C(=O)O`, the Activity [12] was “Toxic”, the Activity [13] was “Active” and the Activity [14] was “Active”.
With `CC(C)[C@@H](ON1C(=O)c2ccccc2C1=O)C(=O)OCc1ccccc1` the Activity [12] was “Toxic”, the Activity [13] was “Active” and the Activity [14] was “Active”.
In the case of `CCOC(CN(Cc1ccccc1)C(=O)[C@@H](N)[C@@H](C)CC)OCC`, the Activity [12] is reported as “Toxic”, the Activity [13] is reported as “Active” and the Activity [14] is reported as “Active”.
